Patent US7144706B2, “Methods of modulating localization and physiological function of IP3 receptors” (Duke University, priority 2002, dated 2006)
Entries after “also recorded” stand apart in the source; their conditions may differ. Where no end group is shown, it is not given here.

Tests used:
[1] = test system: IP3R; experiment: [3H]IP3 binding assay and Scatchard analysis, cardiac muscle microsomes; parameters: species or system mouse; conditions: for Kd: n=5
Protocol: IP3 Binding Experiments. Cardiac membranes were prepared and labeled with increasing concentrations (5–40 nM) of [^3H] IP3 (Amersham) essentially as described (Perez et al, J. Biol. Chem. 272:23961 1997)). Assays were performed in triplicate, and at each IP3 concentration, non-specific binding was assessed in the presence of 1 μM unlabeled IP3 (ICN).

[2] = test system: AnkB+/− and +/+ mice
Description: Sudden cardiac death in humans with the E1425G mutation occurred secondary to physical exertion and emotional stress (FIG. 28)3. An attempt was made to mimic these circumstances in mice with exercise followed by injection with epinephrine.

[3] = test system: adult AnkB+/− and control ventricular cardiomyocytes; experiment: Action potential recordings in isolated adult ventricular cardiomyocytes with isoproterenol; type: cell-based, mouse; conditions: for extrasystoles in action potentials after acute isoproterenol: isoproterenol (1 μM); for myocytes with DADs and EADs: isoproterenol
Protocol: Patch clamp methods. AnkB+/− and +/+ animals (1–3 months of age) were sacrificed by IP injection of pentobarbital sodium (100 mg/kg). Single myocytes were isolated (Santana et al, J. Physiol. 503:21 (1997)). Axopatch-200A or -200B amplifier (Axon Instruments) was used to measure membrane currents (Santana et al, J. Physiol. 503:21(1997), Santana et al, Science 279:1027 (1998)). Patch pipette (1–3 MOhm) solution (mM): CsCl (130); NaCl (10); MgATP (5); Hepes (10), MgCl2 (1) PH 7.2 (with CsOH). Superfusion solution 1: (mM) NaCl (140), KCl (5) MgCl2 (0.5), CaCl2 (1.8), NaH2PO4 (0.33), glucose (5.5) and HEPES (5); pH 7.4 at 35–37° C. Solution 2 was same as solution 1 but with CsCl substituted for KCl. After conversion to whole cell, voltage clamp in solution (1), solution (2) was used to measure ICa. Test depolarizations followed four 50 ms depolarizations to 0 mV at 1 Hz. A 500 ms ramp-depolarization from […] to 40 mV was followed by a 50 ms period at 40 mV before test depolarizations.
AP recordings. Myocytes were superfused with Solution 1. β adrenergic stimulation of cells produced by the addition of 1 μM isoproterenol to solution 1. Pipette filling solution as above, except KCl was substituted for CsCl (pH 7.2 with KOH). Axopatch 200A was used in current clamp mode to record AP. Current injections triggered AP at constant rate (1 Hz, 5 Hz). All experiments were performed at 37° C.

[4] = test system: wildtype and ankyrin-B (+/−) mice; experiment: Heart rate by ECG radiotelemetry in conscious mice after drug injection; type: in vivo, mouse; conditions: for heart rate response to endothelin-1: 300 ng/kg
Protocol: (§1) EKG recordings. EKG recordings were obtained using a radiotelemetry apparatus (DSI). Transmitters were implanted and the mice recovered for 5 days prior to recordings. EKG traces were analyzed using Data Quest analysis software 2.1 (DSI). P wave duration, PR interval, RR interval, QRS interval and QT interval were all calculated according to established methods. The rate corrected QT interval (QTc) was calculated from the relationship QTc=QT/(RR)^1/2 Following a 15-hour fast, blood glucose levels were measured (OneTouch Ultra; Lifescan) before and up to 120 min after an intraperitoneal injection of either PBS, glucose (2 g/kg) or insulin (5 units/kg; Eli Lilly) (Ludwig et al, J. Clin. Invest. 107:379–386 (2001)).
To test ankyrin-B heterozygous mice for potential defects in Gαq signaling, ECG radiotransmitter implants were implanted in the abdomen of ankyrin-B (+/−) mice as well as wildtype littermate controls. These probes allow the recording of real time ECG and thus heart rate recordings in conscious, non-anethestized mice. 24 hour recordings of wildtype mice compared to heterozygote animals show overall bradycardia in the heterozygote (FIG. 9).

[5] = test system: Na/K ATPase; experiment: [3H]ouabain binding to adult cardiac microsomes; parameters: species or system mouse
Description: Na/K ATPase, Na/Ca exchanger (NCX) and IP3R are candidate ankyrin-binding proteins based on biochemical data (Bennett et al, Physiol. Rev. 81:1353 (2001)) that are localized at T-tubules (Frank et al, in The Myocardium (ed. Langer, G A) 1–32 (Academic Press, San Diego, Calif., 1997)). Ankyrin-B co-immunoprecipitates with NCX1, α1 and α2 ATPase, and IP3R from extracts of heart tissue (FIG. 30B), but not with other cardiomyocyte proteins (including DHPR, SERCA2, and calsequestrin). Levels of IP3R (pan IP3R), α1 and α2 Na/K ATPase subunits, and NCX in isolated adult cardiomyocytes are reduced by 15–33% in AnkB+/− cardiomyocytes by immunoblots (FIG. 30C). Measurements of binding of [^3H] […] In contrast, by quantitative western blot analysis, protein levels of ER/SR components (SERCA2, calreticulin, calsequestrin), K+ channels or associated subunits (KCNQ1/KvLQT1, ERG1, MinK/IsK, Kir2.1/IRK1, Kir2.3/IRK3), RyR2, plasma membrane Ca^+2 channels (DHPR, PMCA2), and structural proteins (α-actinin, dystrophin) are unaffected (FIG. 30C).

[6] = test system: (+/+) and AnkB (+/−) mice; experiment: Insulin-tolerance test, blood glucose; type: in vivo, mouse; conditions: 5 units/kg intraperitoneal, 120 min
Protocol: as §1

## O=P(O)(O)O[C@@H]1[C@H](O)[C@H](O)[C@@H](OP(=O)(O)O)[C@H](OP(=O)(O)O)[C@H]1O [IP3, inositol 1,4,5-triphosphate]
[1]; (+/+) cardiac muscle
  Bmax, IP3 binding capacity: 0.083 pmol/mg
  Kd: 24 nM
[1]; AnkB (+/−) cardiac muscle
  Bmax, IP3 binding capacity: 0.056 pmol/mg
  Kd: 25 nM
[1]; AnkB (+/−) vs wildtype heart
  reduction in IP3 binding capacity: 33%
[1]; adult cardiac microsomes
  affinity for ligand, AnkB+/− vs +/+: unchanged

## CNC[C@H](O)c1ccc(O)c(O)c1 [epinephrine]
[2]; +/+ mice
  mice that became unresponsive or died: 0/6
[2]; AnkB+/− mice
  mice that died following exercise combined with epinephrine: 8/14
[2]; AnkB+/− mouse, exercise and epinephrine
  time to polymorphic ventricular arrhythmias after EPI: ~17 min

## CC(C)NCC(O)c1ccc(O)c(O)c1 (stereo not drawn) [isoproterenol]
[3]; AnkB+/− cardiomyocytes
  extrasystoles in action potentials after acute isoproterenol: developed spontaneous extrasystoles at both 1 and 5 Hz
[3]; AnkB+/− myocytes, 1 and 5 Hz
  myocytes with DADs and EADs: 36%
[3]; control cells
  extrasystoles in action potentials after acute isoproterenol: did not
[3]; control myocytes
  myocytes with DADs and EADs: no control myocytes
[4]; wildtype and ankyrin-B (+/−) mice, 50 mg/kg
  heart rate response to isoproterenol: responsed equally

## C[C@@H]1O[C@@H](O[C@H]2C[C@@H](O)[C@]3(CO)[C@H]4[C@H](O)C[C@]5(C)[C@@H](C6=CC(=O)OC6)CC[C@]5(O)[C@@H]4CC[C@]3(O)C2)[C@H](O)[C@H](O)[C@H]1O [ouabain]
[5]; AnkB+/− heart vs +/+
  reduction in [3H]ouabain binding capacity: 16%
[5]; adult cardiac microsomes
  affinity for ligand, AnkB+/− vs +/+: unchanged

## CNC[C@H](O)c1cccc(O)c1 [phenylephrine]
[4]; ankyrin-B (+/−) mice, 3 mg/kg
  heart rate response to phenylephrine: significant decreased heart rate sensitivity; also recorded: does not reach the same minimum levels as the wildtype
[4]; ankyrin-B heterozygous mice, propanolol injected prior to phenylephrine
  maximal decrease in heart rate after phenylephrine during beta blockade: ~50 % of the wildtype response
[4]; wildtype mice, 3 mg/kg intraperitoneal
  heart rate response to phenylephrine: rapid decrease in heart rate

## CC(C)NCC(O)COc1cccc2ccccc12 (stereo not drawn) [propanolol]
[4]; wildtype and ankyrin-B heterozygote mice
  heart rate response to propanolol: typical decreases in heart rate which were not significantly different

## endothelin-1 (CSCSSLMDKECVYFCHLDIIW; ends and bridges not checked; cysteine pairing not given here; UniProt P05305 53-73, looked up) [signals via a Gαq-coupled receptor]
[4]; ankyrin-B (+/−) mice
  heart rate response to endothelin-1: significantly reduced; also recorded: does not reach the same levels as the wildtype
[4]; wildtype animals
  heart rate response to endothelin-1: significant decrease in heart rate

## insulin
[6]; (+/+) mice
  blood glucose after insulin injection: decline following the insulin injection and return to near normal levels by the end of the 120 min period
[6]; AnkB (+/−) mice
  blood glucose after insulin injection: significant reduction in blood glucose levels
